In the supplement of paper PMC13380429:

Assays:
Settings in all cases: 72 h
Vero E6 [1] = assay: cell viability relative to DMSO; higher = less toxic
HepG2 [2] = assay: as above
Calu-3 [3] = assay: as above
U2OS [4] = assay: as above
Caco-2 [5] = assay: as above
Vero E6 [6] = assay: relative viability EC50 (midpoint between 100% and the lowest measured viability); higher = less toxic
Calu-3 [7] = assay: as above
U2OS [8] = assay: as above
Caco-2 [9] = assay: as above
Vero E6 [10] = assay: drug sensitivity score (DSS) for viability; higher = more toxic; extreme values may be limits of the assay
HepG2 [11] = assay: as above
Calu-3 [12] = assay: as above
U2OS [13] = assay: as above
Caco-2 [14] = assay: as above

Row | SMILES | cell viability (Vero E6 [1]; 1 nM) [%] | cell viability (Vero E6 [1]; 10 nM) [%] | cell viability (Vero E6 [1]; 100 nM) [%] | cell viability (Vero E6 [1]; 1000 nM) [%] | cell viability (Vero E6 [1]; 10000 nM) [%] | cell viability (HepG2 [2]; 1 nM) [%] | cell viability (HepG2 [2]; 10 nM) [%] | cell viability (HepG2 [2]; 100 nM) [%] | cell viability (HepG2 [2]; 1000 nM) [%] | cell viability (HepG2 [2]; 10000 nM) [%] | cell viability (Calu-3 [3]; 1 nM) [%] | cell viability (Calu-3 [3]; 10 nM) [%] | cell viability (Calu-3 [3]; 100 nM) [%] | cell viability (Calu-3 [3]; 1000 nM) [%] | cell viability (Calu-3 [3]; 10000 nM) [%] | cell viability (U2OS [4]; 1 nM) [%] | cell viability (U2OS [4]; 10 nM) [%] | cell viability (U2OS [4]; 100 nM) [%] | cell viability (U2OS [4]; 1000 nM) [%] | cell viability (U2OS [4]; 10000 nM) [%] | cell viability (Caco-2 [5]; 1 nM) [%] | cell viability (Caco-2 [5]; 10 nM) [%] | cell viability (Caco-2 [5]; 100 nM) [%] | cell viability (Caco-2 [5]; 1000 nM) [%] | cell viability (Caco-2 [5]; 10000 nM) [%] | relative viability EC50 (Vero E6 [6]) [µM] | relative viability EC50 (Calu-3 [7]) [µM] | relative viability EC50 (U2OS [8]) [µM] | relative viability EC50 (Caco-2 [9]) [µM] | drug sensitivity score (Vero E6 [10]) | drug sensitivity score (HepG2 [11]) | drug sensitivity score (Calu-3 [12]) | drug sensitivity score (U2OS [13]) | drug sensitivity score (Caco-2 [14])
1 | COC(=O)/C=C/C(=O)OCCN1C(=O)CCC1=O [diroximel-fumarate] | 98.4 | 102 | 92.2 | 99 | 106 | 103 | 115 | 87.7 | 115 | 52.1 | 112 | 112 | 120 | 92.5 | 123 | 101 | 101 | 105 | 103 | 98.9 | 109 | 104 | 107 | 97.6 | 92.4 | > 10 | > 10 | > 10 | > 10 | 0 | 1.8 | 0 | 0 | 0
2 | CC(C(=O)O)c1cccc(Oc2ccccc2)c1 (stereo not given) [fenoprofen] | 101 | 94 | 95.3 | 88.7 | 112 |  |  |  |  |  | 98.1 | 112 | 111 | 103 | 103 | 96.7 | 99.9 | 97.5 | 103 | 105 | 98.4 | 93.5 | 98.7 | 101 | 108 | > 10 | > 10 | > 10 | > 10 | 0 |  | 0 | 0 | 0
3 | NCCCC[C@H](N[C@@H](CCc1ccccc1)C(=O)O)C(=O)N1CCC[C@H]1C(=O)O [lisinopril] | 104 | 105 | 102 | 101 | 99.2 |  |  |  |  |  | 109 | 94.7 | 110 | 98.8 | 93.4 | 102 | 95.7 | 95 | 97 | 97.2 |  |  |  |  |  | > 10 | > 10 | > 10 |  | 0 |  | 0 | 0 | 
4 | O=c1ccc2ccc(OCCCCN3CCN(c4cccc5sccc45)CC3)cc2[nH]1 [brexpiprazole] | 99.1 | 97.5 | 94.5 | 94.5 | 94.3 | 100 | 96.3 | 96 | 92 | 56.8 | 95.5 | 85 | 96 | 91.6 | 104 | 97.6 | 99 | 95.6 | 101 | 86.6 | 91.7 | 96.7 | 87.3 | 98.1 | 87.5 | > 10 | > 10 | > 10 | > 10 | 0 | 3.5 | 0 | 0.1 | 0
5 | CCCN1C[C@H](CSC)C[C@@H]2c3cccc4[nH]cc(c34)C[C@H]21 [pergolide] | 95.9 | 96.5 | 95.6 | 90 | 96.4 |  |  |  |  |  | 89.8 | 105 | 104 | 99.7 | 101 | 97.3 | 102 | 100 | 102 | 97.3 | 93.2 | 93 | 99.5 | 96.4 | 100 | > 10 | > 10 | > 10 | > 10 | 0 |  | 0 | 0 | 0
6 | Nc1ccncc1 [dalfampridine] | 107 | 102 | 101 | 101 | 98.9 |  |  |  |  |  | 102 | 104 | 90.9 | 99 | 100 |  |  |  |  |  | 102 | 108 | 99.1 | 106 | 96 | > 10 | > 10 |  | > 10 | 0 |  | 0 |  | 0
7 | CCCOc1ccc(Br)cc1-c1cc(-c2ccc(Cl)cc2)[nH]c1-c1ccncc1 | 95.6 | 102 | 99.7 | 98 | 85.7 | 104 | 97.7 | 96.1 | 101 | 65.9 | 99.6 | 96.3 | 103 | 94.2 | 103 | 104 | 106 | 104 | 97.5 | 98.6 | 95.3 | 95.3 | 93.6 | 100 | 84.8 | > 10 | > 10 | > 10 | > 10 | 0.4 | 1.5 | 0 | 0 | 0.2
